Assay results taken from patent US9776972B2, “Pyrazole derivatives as arginine methyltransferase inhibitors and uses thereof” (priority 2013, dated 2017).

What was measured:
human PRMT6 = target: T1, human PRMT6 (Homo sapiens, UniProt Q96LA8); assay: PRMT6 Biochemical Assay (3H-SAM Flashplate, peptide substrate); settings: Biochemical IC50 PRMT6, single experiment or average of multiple experiments
T1 construct: Flag-PRMT6-His; made in house; host or cells: HEK 293F cells (BacMam baculovirus)
From the text: (§1) S-adenosylmethionine (SAM), S-adenosylhomocysteine (SAH), bicine, Tween20, dimethylsulfoxide (DMSO), bovine skin gelatin (BSG), sodium butyrate and Tris(2-carboxyethyl)phosphine hydrochloride solution (TCEP) were purchased from Sigma-Aldrich at the highest level of purity possible. ^3H-SAM was purchase from American Radiolabeled Chemicals with a specific activity of 80 Ci/mmol. 384-well streptavidin Flashplates were purchased from PerkinElmer.
Peptide representative of human histone H4 residues 36-50 was synthesized with an N-terminal linker-affinity tag motif and a C-terminal amide cap by 21st Century Biochemicals.
The amplified gene was subcloned into pFastBacMam (Viva Biotech).
Recombinant baculovirus were generated according to Bac-to-Bac kit instructions (Life Technologies). […] Infections were carried out at 37° C. for 48 hours, harvested by centrifugation, and stored at −80° C. for purification.
Column was washed with 20 mM imidazole in the same buffer and Flag-PRMT6-His was eluted with 150 mM imidazole. […] Flag-PRMT6-His was eluted with 200 ug/ml FLAG peptide in the same buffer. Pooled fractions were dialysed in 20 mM Tris, 150 mM NaCl, 10% glycerol and 5 mM β-mercaptoethanol, pH 7.8.
General Procedure for PRMT6 Enzyme Assays on Peptide Substrates.
(§2) The assays were all performed in a buffer consisting of 20 mM Bicine (pH=7.6), 1 mM TCEP, 0.005% BSG, and 0.002% Tween 20, prepared on the day of use. […] DMSO (1 ul) was added to Columns 11, 12, 23, 24, rows A-H for the maximum signal control and 1 ul of SAH, a known product and inhibitor of PRMT6, was added to columns 11, 12, 23, 24, rows I-P for the minimum signal control. A cocktail (40 ul) containing the PRMT6 enzyme was added by Multidrop Combi (Thermo-Fisher). The compounds were allowed to incubate with PRMT6 for 30 min at room temperature, then a cocktail (10 ul) containing SAM and peptide was added to initiate the reaction (final volume=51 ul). […] The assays were stopped by the addition of non-radiolabeled SAM (10 ul) to a final concentration of 400 uM, which dilutes the ^3H-SAM to a level where its incorporation into the peptide substrate is no longer detectable. 50 ul of the reaction in the 384-well polypropylene plate was then transferred to a 384-well Flashplate and the biotinylated peptides were allowed to bind to the streptavidin surface for at least 1 hour before being washed once with 0.1% Tween20 in a Biotek ELx405 plate washer. The plates were then read in a PerkinElmer TopCount plate reader to measure the quantity of ^3H-labeled peptide bound to the Flashplate surface, measured as disintegrations per minute (dpm) or alternatively, referred to as counts per minute (cpm).
(§3) Where dpm=disintegrations per minute, cmpd=signal in assay well, and min and max are the respective minimum and maximum signal controls.
(§4) Where top and bottom are the normally allowed to float, but may be fixed at 100 or 0 respectively in a 3-parameter fit. The Hill Coefficient normally allowed to float but may also be fixed at 1 in a 3-parameter fit. Y is the % inhibition and X is the compound concentration.

human PRMT8 = human PRMT8 (Homo sapiens, UniProt Q9NR22); assay: PRMT8 Biochemical Assay (3H-SAM Flashplate, peptide substrate); settings: single experiment or average of multiple experiments
Sequence of human PRMT8 (Q9NR22 whole entry): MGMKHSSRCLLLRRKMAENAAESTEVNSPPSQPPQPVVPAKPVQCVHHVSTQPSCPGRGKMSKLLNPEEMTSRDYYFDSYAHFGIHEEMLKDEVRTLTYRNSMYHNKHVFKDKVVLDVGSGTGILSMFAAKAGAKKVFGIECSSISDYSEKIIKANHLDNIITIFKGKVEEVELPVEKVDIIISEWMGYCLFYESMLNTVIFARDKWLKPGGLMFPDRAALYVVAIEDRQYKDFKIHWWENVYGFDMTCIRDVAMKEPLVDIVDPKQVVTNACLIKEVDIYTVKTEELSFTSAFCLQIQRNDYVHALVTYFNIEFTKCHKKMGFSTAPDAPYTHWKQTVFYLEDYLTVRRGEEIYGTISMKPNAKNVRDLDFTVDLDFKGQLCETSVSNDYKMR
From the text: as §1, with “isopropyl-β-D-thiogalactopyranoside (IPTG),” for “sodium butyrate”
Peptide representative of human histone H4 residues 31-45 was synthesized with an N-terminal linker-affinity tag motif and a C-terminal amide cap by 21st Century Biochemicals.
E. coli (BL21(DE3) Gold, Stratagene) made competent by the CaCl2 method were transformed with the PRMT8 construct and ampicillin selection. Protein over-expression was accomplished by growing the PRMT8 expressing E. coli clone and inducing expression with 0.3 mM IPTG at 16° C. The culture was grown for 12 hours, harvested by centrifugation, and stored at −80° C. for purification.
GST-tagged PRMT8 was eluted with 50 mM Tris, 2 mM glutathione, pH 7.8. Pooled fractions were cleaved by thrombin (10 U) and dialysed in buffer A. GST was removed by reloading the cleaved protein sample onto glutathione sepharose column and PRMT8 was collected in the flow-through fractions. PRMT8 was purified further by ceramic hydroxyapatite chromatography. The column was washed with 50 mM phosphate buffer, 100 mM NaCl, 5% glycerol, 5 mM β-mercaptoethanol, pH 7.8 and PRMT8 was eluted by 100 mM phosphate in the same buffer. Protein was concentrated and buffer was exchanged to 50 mM Tris, 300 mM NaCl, 10% glycerol, 5 mM β-mercaptoethanol, pH 7.8 by ultrafiltration.
General Procedure for PRMT8 Enzyme Assays on Peptide Substrates.
as §2, with “of PRMT8,” for “of PRMT6,”, “the PRMT8” for “the PRMT6”, “with PRMT8” for “with PRMT6”, “containing ^3H-SAM” for “containing SAM”
as §3, §4

human PRMT1 = target: T2, human PRMT1 (Homo sapiens, UniProt Q99873); assay: PRMT1 Biochemical Assay (3H-SAM Flashplate, peptide substrate); settings: single experiment or average of multiple experiments
T2 construct: GST-tagged PRMT1; made in house; host or cells: High Five insect cells (baculovirus)
T2 sequence (Q99873 with tags, fused parts or gaps): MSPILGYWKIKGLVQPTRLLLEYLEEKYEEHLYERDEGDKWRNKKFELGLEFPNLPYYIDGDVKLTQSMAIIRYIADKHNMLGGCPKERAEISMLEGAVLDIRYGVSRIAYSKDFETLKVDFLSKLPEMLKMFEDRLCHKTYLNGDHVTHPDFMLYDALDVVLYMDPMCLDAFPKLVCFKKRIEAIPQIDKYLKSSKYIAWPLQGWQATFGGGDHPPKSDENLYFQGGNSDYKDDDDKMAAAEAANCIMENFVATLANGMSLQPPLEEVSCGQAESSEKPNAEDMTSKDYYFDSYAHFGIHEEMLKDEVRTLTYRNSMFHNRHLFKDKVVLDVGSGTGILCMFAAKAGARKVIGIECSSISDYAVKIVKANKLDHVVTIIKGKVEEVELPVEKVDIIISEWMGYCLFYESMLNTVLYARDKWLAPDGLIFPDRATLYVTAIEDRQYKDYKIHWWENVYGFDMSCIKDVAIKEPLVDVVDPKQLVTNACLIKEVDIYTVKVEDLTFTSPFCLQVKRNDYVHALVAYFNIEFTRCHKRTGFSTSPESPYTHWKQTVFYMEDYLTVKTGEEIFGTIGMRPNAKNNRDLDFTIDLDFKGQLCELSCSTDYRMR
From the text: as §1, with “(BSG),” for “(BSG), sodium butyrate”
Recombinant baculovirus were generated according to Bac-to-Bac kit instructions (Life Technologies). […] Infections were carried out at 27° C. for 48 hours, harvested by centrifugation, and stored at −80° C. for purification.
GST-tagged PRMT1 was eluted with 50 mM Tris, 2 mM glutathione, pH 7.8, dialysed in buffer A and concentrated to 1 mg/mL.
General Procedure for PRMT1 Enzyme Assays on Peptide Substrates.
as §2, with “PRMT1,” for “PRMT6,”, “PRMT1” for “PRMT6”, “300” for “400”
as §3, §4

T1 sequence (Q96LA8 with tags, fused parts or gaps): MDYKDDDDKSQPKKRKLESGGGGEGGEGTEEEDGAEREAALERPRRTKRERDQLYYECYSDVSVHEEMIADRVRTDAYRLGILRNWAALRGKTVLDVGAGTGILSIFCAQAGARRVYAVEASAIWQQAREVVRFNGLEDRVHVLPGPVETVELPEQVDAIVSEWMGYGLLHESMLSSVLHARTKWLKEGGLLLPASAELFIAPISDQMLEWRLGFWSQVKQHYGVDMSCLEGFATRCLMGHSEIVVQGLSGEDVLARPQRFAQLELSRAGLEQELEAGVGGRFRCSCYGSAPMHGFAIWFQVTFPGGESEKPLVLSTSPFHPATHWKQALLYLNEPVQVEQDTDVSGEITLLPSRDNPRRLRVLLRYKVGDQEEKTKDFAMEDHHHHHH

SMILES: CNCCN(C)Cc1c[nH]nc1-c1ccccc1Oc1ccccc1 [Compound 36]
- IC50 (human PRMT6): 2440 nM
- IC50 (human PRMT8): 22400 nM

SMILES: CNCCN(C)Cc1c[nH]nc1-c1ccccc1OC(F)(F)F [Compound 40]
- IC50 (human PRMT1): 700 nM
- IC50 (human PRMT6): 680 nM
- IC50 (human PRMT8): 6760 nM

SMILES: CNCCN(C)Cc1c[nH]nc1-c1cc(Cl)ccc1OC [Compound 53]
- IC50 (human PRMT1): 3160 nM
- IC50 (human PRMT6): 968 nM
- IC50 (human PRMT8): 12800 nM

SMILES: CNCCN(C)Cc1c[nH]nc1-c1cccc(OC)c1OC [Compound 54]
- IC50 (human PRMT1): 569 nM
- IC50 (human PRMT6): 182 nM
- IC50 (human PRMT8): 7500 nM

SMILES: CCNCCN(C)Cc1c[nH]nc1-c1ccc(F)cc1 [Compound 60]
- IC50 (human PRMT1): 170 nM
- IC50 (human PRMT6): 53.2 nM
- IC50 (human PRMT8): 1540 nM

SMILES: CN(CCN)Cc1c[nH]nc1-c1cc(F)ccc1Cl [Compound 106]
- IC50 (human PRMT1): 336 nM
- IC50 (human PRMT6): 49.8 nM
- IC50 (human PRMT8): 3110 nM

SMILES: CN(CCN)Cc1cnn(CC(O)CO)c1-c1ccc(F)cc1 (centres unmarked) [Compound 113]
- IC50 (human PRMT1): 1490 nM
- IC50 (human PRMT6): 594 nM
- IC50 (human PRMT8): 8520 nM

SMILES: CC(C)CC(=O)N1CCN(c2ccc(-c3n[nH]cc3CN(C)CCN)cc2)CC1 [Compound 180]
- IC50 (human PRMT1): 648 nM
- IC50 (human PRMT6): 20.5 nM
- IC50 (human PRMT8): 5790 nM

SMILES: CN(CCNC1CC1)Cc1c[nH]nc1-c1ccc(C#N)cc1 [Compound 183]
- IC50 (human PRMT1): 2420 nM
- IC50 (human PRMT6): 260 nM
- IC50 (human PRMT8): 4820 nM
